Reference: patent publication US20240158446A1, “CYCLIC COMPOUND HAVING SELECTIVE INHIBITORY ACTION ON KRAS OVER HRAS AND NRAS” (CHUGAI SEIYAKU KABUSHIKI KAISHA, priority 2021, published 2024)

Experiments:
[1] = system: human lung cancer strain NCI-H441; assay: cells; conditions: NCI-H441, 96 h, read-out: NCI-H441 IC50 (nM), NCI-H441 cell proliferation, 4 days, CellTiter-Glo;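 note: cell proliferation inhibition after four days measured by CellTiter-Glo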
[2] = molecular target: GDP-bound HRAS wild-type protein (Homo sapiens, UniProt P01112); assay: Binding to HRAS by surface plasmon resonance (SPR), Single Cycle Kinetics; conditions: ratio of KD for GDP-bound HRAS wild-type protein to KD for KRAS, SPR
Chain of GDP-bound HRAS wild-type protein (P01112 whole entry): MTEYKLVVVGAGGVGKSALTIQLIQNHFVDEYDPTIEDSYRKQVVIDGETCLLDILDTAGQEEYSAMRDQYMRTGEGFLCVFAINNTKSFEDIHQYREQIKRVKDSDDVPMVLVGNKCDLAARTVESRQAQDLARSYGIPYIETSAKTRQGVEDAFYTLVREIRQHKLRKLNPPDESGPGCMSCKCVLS

[3] = molecular target: GDP-bound KRAS wild-type protein (Homo sapiens, UniProt P01116); assay: Binding to KRAS by surface plasmon resonance (SPR), Single Cycle Kinetics; conditions: SPR, Single Cycle Kinetics, GDP-bound KRAS wild-type protein; read-out: KRAS KD
Chain of GDP-bound KRAS wild-type protein (P01116 whole entry): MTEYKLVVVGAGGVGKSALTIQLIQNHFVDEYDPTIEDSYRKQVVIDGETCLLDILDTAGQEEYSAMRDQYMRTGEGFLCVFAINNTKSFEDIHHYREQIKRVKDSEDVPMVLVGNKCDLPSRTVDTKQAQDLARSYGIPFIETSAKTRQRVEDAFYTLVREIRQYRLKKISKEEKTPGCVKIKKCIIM

[4] = molecular target: GDP-bound NRAS wild-type protein (Homo sapiens, UniProt P01111); assay: Binding to NRAS by surface plasmon resonance (SPR), Single Cycle Kinetics; conditions: ratio of KD for GDP-bound NRAS wild-type protein to KD for KRAS, SPR
Chain of GDP-bound NRAS wild-type protein (P01111 whole entry): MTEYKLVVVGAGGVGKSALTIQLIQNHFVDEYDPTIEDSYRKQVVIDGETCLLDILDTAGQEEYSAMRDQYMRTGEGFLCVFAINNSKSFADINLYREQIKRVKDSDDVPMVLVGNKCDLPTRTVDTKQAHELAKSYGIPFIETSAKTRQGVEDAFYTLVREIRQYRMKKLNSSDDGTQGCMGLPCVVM

Row | Structure (SMILES) | IC50 [1] [nM] | HRAS/KRAS (KD ratio) [2] | Kd [3] [nM] | NRAS/KRAS (KD ratio) [4]
1 | CCO[C@@H]1C[C@H]2C(=O)NC3(CC(F)(F)C3)C(=O)N(C)[C@@H](C(CC)CC)C(=O)N3CCC[C@@H]3CC(=O)N(C)[C@@H](CC)C(=O)N[C@@H]([C@@H](C)CC)C(=O)N(C)CC(=O)N(C)[C@H]3C/C=C\CCN(C3=O)[C@@H](Cc3ccc(C(F)(F)F)cc3)C(=O)N(C)CC(=O)N[C@@H](CCc3cc(F)c(C(F)(F)F)c(F)c3)C(=O)N2C1 [PP1608] | 70.1 | A (a compound having 10 or more and less than 20 is denoted as A) | 0.67 | A (a compound having 10 or more and less than 20 is denoted as A)
2 | CCO[C@@H]1C[C@H]2C(=O)NC3(CC(F)(F)C3)C(=O)N(C)[C@@H](C3CCCC3)C(=O)N3CCC[C@@H]3CC(=O)N(C)[C@@H](CC)C(=O)N[C@@H]([C@@H](C)CC)C(=O)N(C)CC(=O)N(C)[C@H]3C/C=C\CCN(C3=O)[C@@H](Cc3ccc(C(F)(F)F)cc3)C(=O)N(C)CC(=O)N[C@@H](CCc3cc(F)c(C(F)(F)F)c(F)c3)C(=O)N2C1 [PP1609] | 37 | A (a compound having 10 or more and less than 20 is denoted as A) | 0.2 | A (a compound having 10 or more and less than 20 is denoted as A)
3 | CCO[C@@H]1C[C@H]2C(=O)NC3(CC(C)(C)C3)C(=O)N(C)[C@@H](C(CC)CC)C(=O)N3CCC[C@@H]3CC(=O)N(C)[C@@H](CC3CC3)C(=O)N[C@@H]([C@@H](C)CC)C(=O)N(C)CC(=O)N(C)[C@H]3C/C=C\CCN(C3=O)[C@@H](Cc3ccc(C(F)(F)F)cc3)C(=O)N(C)CC(=O)N[C@@H](CCc3cc(F)c(C(F)(F)F)c(F)c3)C(=O)N2C1 [PP1610] | 86.8 | A (a compound having 10 or more and less than 20 is denoted as A) | 1.4 | A (a compound having 10 or more and less than 20 is denoted as A)
4 | CCO[C@@H]1C[C@H]2C(=O)NC3(CC(C)(C)C3)C(=O)N(C)[C@@H](C3CCCC3)C(=O)N3CCC[C@@H]3CC(=O)N(C)[C@@H](CC3CC3)C(=O)N[C@@H]([C@@H](C)CC)C(=O)N(C)CC(=O)N(C)[C@H]3C/C=C\CCN(C3=O)[C@@H](Cc3ccc(C(F)(F)F)cc3)C(=O)N(C)CC(=O)N[C@@H](CCc3cc(F)c(C(F)(F)F)c(F)c3)C(=O)N2C1 [PP1611] | 28 | B (a compound having 3 or more and less than 10 is denoted as B) | 1.3 | B (a compound having 3 or more and less than 10 is denoted as B)
5 | CCO[C@@H]1C[C@H]2C(=O)NC3(CCC3)C(=O)N(C)[C@@H](C(CC)CC)C(=O)N3CCC[C@@H]3CC(=O)N(C)[C@@H](CC3CC3)C(=O)N[C@@H]([C@@H](C)CC)C(=O)N(C)CC(=O)N(C)[C@H]3C/C=C\CCN(C3=O)[C@@H](Cc3ccc(C(F)(F)F)cc3)C(=O)N(C)CC(=O)N[C@@H](CCc3cc(F)c(C(F)(F)F)c(F)c3)C(=O)N2C1 [PP1612] | 61.9 | B (a compound having 3 or more and less than 10 is denoted as B) | 1.2 | B (a compound having 3 or more and less than 10 is denoted as B)
6 | CCO[C@@H]1C[C@H]2C(=O)NC3(CCC3)C(=O)N(C)[C@@H](C3CCCC3)C(=O)N3CCC[C@@H]3CC(=O)N(C)[C@@H](CC3CC3)C(=O)N[C@@H]([C@@H](C)CC)C(=O)N(C)CC(=O)N(C)[C@H]3C/C=C\CCN(C3=O)[C@@H](Cc3ccc(C(F)(F)F)cc3)C(=O)N(C)CC(=O)N[C@@H](CCc3cc(F)c(C(F)(F)F)c(F)c3)C(=O)N2C1 [PP1613] | 14.7 | B (a compound having 3 or more and less than 10 is denoted as B) | 0.15 | B (a compound having 3 or more and less than 10 is denoted as B)
7 | CCO[C@@H]1C[C@H]2C(=O)NC3(CC(F)(F)C3)C(=O)N(C)[C@@H](C(CC)CC)C(=O)N3CCC[C@@H]3CC(=O)N(C)[C@@H](CC3CC3)C(=O)N[C@@H]([C@@H](C)CC)C(=O)N(C)CC(=O)N(C)[C@H]3C/C=C\CCN(C3=O)[C@@H](Cc3ccc(C(F)(F)F)cc3)C(=O)N(C)CC(=O)N[C@@H](CCc3cc(F)c(C(F)(F)F)c(F)c3)C(=O)N2C1 [PP1614] | 54.2 | A (a compound having 10 or more and less than 20 is denoted as A) | 1.1 | A (a compound having 10 or more and less than 20 is denoted as A)
8 | CCO[C@@H]1C[C@H]2C(=O)NC3(CC(F)(F)C3)C(=O)N(C)[C@@H](C3CCCC3)C(=O)N3CCC[C@@H]3CC(=O)N(C)[C@@H](CC3CC3)C(=O)N[C@@H]([C@@H](C)CC)C(=O)N(C)CC(=O)N(C)[C@H]3C/C=C\CCN(C3=O)[C@@H](Cc3ccc(C(F)(F)F)cc3)C(=O)N(C)CC(=O)N[C@@H](CCc3cc(F)c(C(F)(F)F)c(F)c3)C(=O)N2C1 [PP1615] | 20.9 | B (a compound having 3 or more and less than 10 is denoted as B) | 0.45 | B (a compound having 3 or more and less than 10 is denoted as B)
9 | CCO[C@@H]1C[C@H]2C(=O)NC3(CCC3)C(=O)N(C)[C@@H](C3CCCC3)C(=O)N3CCC[C@@H]3CC(=O)N(C)[C@@H](CC3CC3)C(=O)N[C@@H]([C@@H](C)CC)C(=O)N(C)CC(=O)N(C)[C@H]3C/C=C\CCN(C3=O)[C@@H](Cc3ccc(C(F)(F)F)cc3)C(=O)N(C)CC(=O)N[C@@H](CCc3ccc(C(F)(F)F)c(OC)c3)C(=O)N2C1 [PP1616] | 33.5 | B (a compound having 3 or more and less than 10 is denoted as B) | 0.29 | B (a compound having 3 or more and less than 10 is denoted as B)
10 | CCO[C@@H]1C[C@H]2C(=O)NC3(CC(C)(C)C3)C(=O)N(C)[C@@H](C3CCCC3)C(=O)N3CCC[C@@H]3CC(=O)N(C)[C@@H](CC)C(=O)N[C@@H]([C@@H](C)CC)C(=O)N(C)CC(=O)N(C)[C@H]3C/C=C\CCN(C3=O)[C@@H](CC3CCCCC3)C(=O)N(C)CC(=O)N[C@@H](CCc3cc(F)c(C(F)(F)F)c(F)c3)C(=O)N2C1 [PP1620] | 170 | B (a compound having 3 or more and less than 10 is denoted as B) | 6.4 | B (a compound having 3 or more and less than 10 is denoted as B)
11 | CCO[C@@H]1C[C@H]2C(=O)NC3(CC(C)(C)C3)C(=O)N(C)[C@@H](C3CCCC3)C(=O)N(C)[C@H](CC)CC(=O)N(C)[C@@H](CC)C(=O)N[C@@H]([C@@H](C)CC)C(=O)N(C)CC(=O)N(C)[C@H]3C/C=C\CCN(C3=O)[C@@H](Cc3ccc(C(F)(F)F)cc3)C(=O)N(C)CC(=O)N[C@@H](CCc3cc(F)c(C(F)(F)F)c(F)c3)C(=O)N2C1 [PP1623] | 4.5 | A (a compound having 10 or more and less than 20 is denoted as A) | 0.19 | A (a compound having 10 or more and less than 20 is denoted as A)
12 | CCC[C@H]1C(=O)N[C@@H]([C@@H](C)CC)C(=O)N(C)CC(=O)N(C)[C@H]2C/C=C\CCN(C2=O)[C@@H](Cc2ccc(C)cc2)C(=O)N(C)CC(=O)N[C@@H](CCc2ccc(C(F)(F)F)c(Cl)c2)C(=O)N2C[C@@H](C)C[C@H]2C(=O)NC2(CCC2)C(=O)N(C)[C@@H](C2CCCC2)C(=O)N(C)[C@H](C(=O)N(C)CC)CC(=O)N1C [PP1848] | 22.5 |  | 0.11 | 
13 | CC[C@H](C)[C@@H]1NC(=O)[C@H](CC(F)F)N(C)C(=O)C[C@@H](C(=O)N(C)C)N(C)C(=O)[C@H](C2CCCC2)N(C)C(=O)C2(CC(C)(C)C2)NC(=O)[C@@H]2C[C@H](C)CN2C(=O)[C@H](CCc2ccc(C(F)(F)F)c(OC)c2)NC(=O)CN(C)C(=O)[C@H](Cc2ccc(C)cc2)N2CC/C=C\C[C@@H](C2=O)N(C)C(=O)CN(C)C1=O [PP1875] | 7.7 |  | 0.083 | 
14 | CC[C@H](C)[C@@H]1NC(=O)[C@H](CC)N(C)C(=O)C[C@@H](C(=O)N(C)CC)N(C)C(=O)[C@H](C2CCCC2)N(C)C(=O)C2(CC(C)(C)C2)NC(=O)[C@@H]2C[C@H](C)CN2C(=O)[C@H](CCc2cc(F)c(C(F)(F)F)c(F)c2)NC(=O)CN(C)C(=O)[C@H](Cc2ccc(C)cc2)N2CC/C=C\C[C@@H](C2=O)N(C)C(=O)CN(C)C1=O [PP1882] | 20.2 |  | 0.12 | 
15 | CC[C@H](C)[C@@H]1NC(=O)[C@H](CC2CC2)N(C)C(=O)C[C@@H](C(=O)N(C)CC)N(C)C(=O)[C@H](C2CCCC2)N(C)C(=O)C2(CCC2)NC(=O)[C@@H]2C[C@@H](C)CN2C(=O)[C@H](CCc2ccc(C(F)(F)F)c(OC)c2)NC(=O)CN(C)C(=O)[C@H](Cc2ccc(C)cc2)N2CC/C=C\C[C@@H](C2=O)N(C)C(=O)CN(C)C1=O [PP1900] | 24.7 |  | 0.17 | 
16 | CCO[C@@H]1C[C@H]2C(=O)NC3(CC(C)(C)C3)C(=O)N(C)[C@@H](C3CCCC3)C(=O)N(C)[C@H](C(=O)N(C)CC)CC(=O)N(C)[C@@H](C3CCC3)C(=O)N[C@@H]([C@@H](C)CC)C(=O)N(C)CC(=O)N(C)[C@H]3C/C=C\CCN(C3=O)[C@@H](Cc3ccc(C(F)(F)F)cc3)C(=O)N(C)CC(=O)N[C@@H](CCc3ccc(C(F)(F)F)c(OC)c3)C(=O)N2C1 [PP1985] | 17.7 | B (a compound having 3 or more and less than 10 is denoted as B) | 0.23 | 
17 | CCCN(C)C(=O)[C@@H]1CC(=O)N(C)[C@@H](CCOC)C(=O)N[C@@H]([C@@H](C)CC)C(=O)N(C)CC(=O)N(C)[C@H]2C/C=C\CCN(C2=O)[C@@H](Cc2ccc(C(F)(F)F)cc2)C(=O)N(C)CC(=O)N[C@@H](CCc2ccc(C(F)(F)F)c(OC)c2)C(=O)N2C[C@@H](C)C[C@H]2C(=O)NC2(CCC2)C(=O)N(C)[C@@H](C2CCCC2)C(=O)N1C [PP2029] | 18.9 | B (a compound having 3 or more and less than 10 is denoted as B) |  | A (a compound having 10 or more and less than 20 is denoted as A)
